# Measured values as given in US20160128953A1, “TRANS-CLOMIPHENE AND ITS ANALOGUES AS AGENTS THAT INCREASE BONE MINERAL DENSITY” (REPROS THERAPEUTICS INC., priority 2013, published 2016).
# Marks after values point to notes of the source that are not given here.
# Key:
# [1] = tested on: human males with secondary hypogonadism; assay: Serum hormone (DHT, E2) and SHBG levels by immunoassay in treated men; assay type: in vivo; conditions: for DHT / E2 / SHBG: serum
# Method: (§1) The effect of the isolated trans-clomiphene isomer on the serum level of biomarkers of bone resorption was assessed in human males with secondary hypogonadism.
# Adult male subjects with a morning total testosterone blood level of <300 ng/dl and a serum LH of <15 IU/ml were administered either trans-clomiphene (12 mg/day or 25 mg/day via oral capsule) or a topical testosterone gel (Testim®, 50 mg applied daily) over a three month period. Quantitative determination of baseline serum (circulating) estrogen (E2), dihydrotestosterone (DHT), sex hormone binding globulin (SHBG), P1NP-1 and CTX measurements were made in the subjects by immunoassay. Treatment with either trans-clomiphene (12.5 mg or 25 mg) or Testim® was then initiated. […]
# [2] = tested on: human males with secondary hypogonadism; assay: Serum P1NP-1 (biomarker of bone formation) by immunoassay; assay type: in vivo
# Method: as §1
# (§2) Adult male subjects with a morning total testosterone blood level of <300 ng/dl and a serum LH of <15 IU/ml were administered either trans-clomiphene ([…] or 25 mg/day via oral capsule) or a topical testosterone gel (Testim®, 50 mg applied daily) over a three month period. Quantitative determination of baseline serum (circulating) estrogen (E2), dihydrotestosterone (DHT), sex hormone binding globulin (SHBG), P1NP-1 and CTX measurements were made in the subjects by immunoassay. Treatment with either trans-clomiphene (12.5 mg or 25 mg) or Testim® was then initiated. Follow-up measurements were taken at 3 weeks post initial dose, 6 months post initial dose and one month after cessation of treatment. The results are presented below at Table 1:
# (§3) The effects of trans-clomiphene and Testim® on the level of serum biomarkers of bone formation (P1NP) and bone resorption (CTX) are illustrated at FIGS. 1 and 2. […] The lower levels of P1NP-1 at both trans-clomiphene doses are well within the normal range (15-80 μg/L). A decrease in CTX levels was also observed at both trans-clomiphene dosages; however, the decrease was much stronger at the 25 mg dose. […]
# [3] = tested on: human males with secondary hypogonadism; assay: Serum CTX (biomarker of bone resorption) by immunoassay; assay type: in vivo
# Method: as §1, §2, §3
# hypogonadal males = assay: Total hip bone mineral density (BMD) by DEXA scan; assay type: in vivo, human; conditions: 6 months daily trans-clomiphene (12.5 mg, or up-titrated to 25 mg/day); 15 hypogonadal males; FIG. 3
# Method: The effect of trans-clomiphene on total hip bone mineral density (BMD) was assessed by dual-energy x-ray absorptiometry (DEXA) scans in 15 hypogonadal males (morning testosterone less than 300 ng/dL) with body mass index (BMI) ranging between 25 and 42 and no evidence of bone disease (including ostepenia) prior to treatment. DEXA scans were performed prior to treatment with trans-clomiphene to determine baseline measurements and after 6 months of daily administration of trans-clomiphene. Four of the 15 subjects received 12.5 mg trans-clomiphene administered daily throughout the 6 month period. Eleven of the 15 subjects began at the 12.5 mg/day dose but were later up-titrated to 25 mg/day. Total hip BMD was also assessed in 25 placebo (control) subjects at the same time points. BMD measurements at the 6 month time point in both treated and control subjects were compared to baseline measurements.
# [4] = 12.5 mg Androxal daily oral, 3 months
# [5] = 12.5 mg Androxal daily oral, 6 weeks
# [6] = 12.5 mg Androxal daily oral, Baseline (before TxT)
# [7] = 12.5 mg Androxal daily oral, Post TxT (one month after cessation)
# [8] = 25 mg Androxal daily oral, 3 months
# [9] = 25 mg Androxal daily oral, 6 weeks
# [10] = 25 mg Androxal daily oral, Baseline (before TxT)
# [11] = 25 mg Androxal daily oral, Post TxT (one month after cessation)
smiles,measurement,setting,value
"CCN(CC)CCOc1ccc(/C(=C(/Cl)c2ccccc2)c2ccccc2)cc1 [Androxal, trans-clomiphene]",serum estrogen levels after cessation of treatment compared with baseline,[1]; after cessation of trans-clomiphene treatment,remained elevated
same,change in serum estradiol 17β (E2),[1]; daily administration of trans-clomiphene for 6 weeks and 3 months,significant increase
same,DHT,[1]; [4],20.4^ ng/DL
same,E2,[1]; [4],56.7*¶ pg/mL
same,SHBG,[1]; [4],29.3 nmol/L
same,DHT,[1]; [5],22.7*^ ng/DL
same,E2,[1]; [5],52.1*¶ pg/mL
same,SHBG,[1]; [5],28.6 nmol/L
same,DHT,[1]; [6],15 ng/dL
same,E2,[1]; [6],20.8 pg/mL
same,SHBG,[1]; [6],24.7 nmol/L
same,DHT,[1]; [7],13.7 ng/dL
same,E2,[1]; [7],39.1* pg/mL
same,SHBG,[1]; [7],24.9 nmol/L
same,DHT,[1]; [8],23.2*^ ng/DL
same,E2,[1]; [8],46.3*¶ pg/mL
same,SHBG,[1]; [8],29.5 nmol/L
same,DHT,[1]; [9],22.2*^ ng/DL
same,E2,[1]; [9],48.3*¶ pg/mL
same,SHBG,[1]; [9],32 nmol/L
same,DHT,[1]; [10],15.3 ng/dL
same,E2,[1]; [10],24.7 pg/mL
same,SHBG,[1]; [10],26.4 nmol/L
same,DHT,[1]; [11],15.8 ng/dL
same,E2,[1]; [11],40.2* pg/mL
same,SHBG,[1]; [11],28.7 nmol/L
same,"change in serum P1NP-1 levels, 25 mg dose compared with 12.5 mg dose","[2]; 25 mg trans-clomiphene daily, dose dependency",more robust decrease
same,change in serum P1NP-1 levels,"[2]; either dose of trans-clomiphene (12.5 mg or 25 mg daily), FIG. 1",decrease
same,"decrease in serum CTX levels, 25 mg dose compared with 12.5 mg dose",[3]; 25 mg trans-clomiphene daily,much stronger
same,change in serum CTX levels,"[3]; both trans-clomiphene dosages (12.5 mg and 25 mg daily), FIG. 2",decrease
same,increase in total hip BMD versus baseline,hypogonadal males,about 1.23%
